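Protocol summary: plate cells (96-well), add compound at 5 concentrations, incubate 48 h, interpolate endpoints linearly. GI50 marks 50% less growth. TGI marks complete inhibition of growth.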
Assays:
Test in all cases: NCI-60 cell line screen, 48 h
[1] = test system: MOLT-4 leukemia
[2] = test system: NCI-H522 lung
[3] = test system: DU-145 prostate
[4] = test system: SN12C renal
[5] = test system: IGROV1 ovarian
[6] = test system: KM12 colon
[7] = test system: SK-OV-3 ovarian
[8] = test system: SF-539 CNS
[9] = test system: BT-549 breast
[10] = test system: SK-MEL-2 melanoma
[11] = test system: UACC-62 melanoma
[12] = test system: A549 NSCLC
[13] = test system: HS 578T breast
[14] = test system: SNB-75 CNS
[15] = test system: MDA-MB-435
[16] = test system: OVCAR-5 ovarian
[17] = test system: LOX IMVI melanoma
[18] = test system: CCRF-CEM leukemia
[19] = test system: COLO 205 colon
[20] = test system: MALME-3M melanoma
[21] = test system: HCC-2998 colon
[22] = test system: SF-295 CNS
[23] = test system: NCI-H460 lung
[24] = test system: ACHN renal
[25] = test system: 786-0 renal
[26] = test system: OVCAR-4 ovarian
[27] = test system: SF-268 CNS
[28] = test system: HT29 colon
[29] = test system: RXF 393 renal
[30] = test system: K-562 leukemia
[31] = test system: RPMI-8226 leukemia
[32] = test system: U251 CNS
[33] = test system: MCF7 breast
[34] = test system: TK-10 renal
[35] = test system: NCI-H226 lung
[36] = test system: SNB-19 CNS
[37] = test system: EKVX NSCLC
[38] = test system: OVCAR-8 ovarian
[39] = test system: HL-60(TB) leukemia
[40] = test system: MDA-MB-231 breast
[41] = test system: UO-31 renal
[42] = test system: PC-3 prostate
[43] = test system: T-47D breast
[44] = test system: SK-MEL-5 melanoma
[45] = test system: NCI-H23 lung
[46] = test system: A498 renal
[47] = test system: HCT-15 colon
[48] = test system: SW-620 colon
[49] = test system: UACC-257 melanoma
[50] = test system: M14 melanoma
[51] = test system: HOP-62 NSCLC
[52] = test system: OVCAR-3 ovarian
[53] = test system: HCT-116 colon
[54] = test system: SR leukemia
[55] = test system: NCI/ADR-RES ovarian
[56] = test system: HOP-92 NSCLC
[57] = test system: SK-MEL-28 melanoma
[58] = test system: CAKI-1 renal

Molecule COc1ccc2c(N)ncc(C#Cc3cc(C(=O)Nc4ccc(CN5CCN(C)CC5)c(C(F)(F)F)c4)cnc3C)c2c1 has a GI50 [1] of 0.396 µM, a TGI [1] of 1.67 µM and a GI50 [2] of 0.571 µM. It also gave a TGI [2] of 1.2 µM, a GI50 [3] of 0.419 µM and a TGI [3] of 0.874 µM. It also gave a GI50 [4] of 0.594 µM, a TGI [4] of 1.52 µM and a GI50 [5] of 0.437 µM. The TGI [5] was 2.11 µM, the GI50 [6] was 0.079 µM and the TGI [6] was 2.64 µM. It also gave a GI50 [7] of 1.7 µM, a TGI [7] of 15 µM and a GI50 [8] of 0.597 µM. It also gave a TGI [8] of 1.12 µM, a GI50 [9] of 6.02 µM and a TGI [9] of 14.9 µM. It also gave a GI50 [10] of 0.771 µM, a TGI [10] of 2.67 µM and a GI50 [11] of 1.3 µM. It also gave a TGI [11] of 5.92 µM, a GI50 [12] of 0.576 µM and a TGI [12] of 1.28 µM. It also gave a GI50 [13] of 0.847 µM, a TGI [13] of 4.2 µM and a GI50 [14] of 0.729 µM. For the same molecule, the TGI [14] was 4.38 µM, the GI50 [15] was 0.647 µM and the TGI [15] was 3.1 µM. It also gave a GI50 [16] of 1.33 µM, a TGI [16] of 3.78 µM and a GI50 [17] of 0.505 µM. For the same molecule, the TGI [17] was 1.08 µM, the GI50 [18] was 0.841 µM and the TGI [18] was 4.13 µM. For the same molecule, the GI50 [19] was 0.568 µM, the TGI [19] was 4.48 µM and the GI50 [20] was 0.322 µM. It also gave a TGI [20] of 1.16 µM, a GI50 [21] of 1.42 µM and a TGI [21] of 5.36 µM. The GI50 [22] was 4.78 µM, the TGI [22] was 16.7 µM and the GI50 [23] was 0.476 µM. For the same molecule, the TGI [23] was 1.03 µM, the GI50 [24] was 0.436 µM and the TGI [24] was 1.15 µM. It also gave a GI50 [25] of 0.673 µM, a TGI [25] of 1.25 µM and a GI50 [26] of 1.13 µM. The TGI [26] was 10.9 µM, the GI50 [27] was 1.21 µM and the TGI [27] was 4.78 µM. It also gave a GI50 [28] of 0.194 µM, a TGI [28] of 0.876 µM and a GI50 [29] of 0.502 µM. The TGI [29] was 1.11 µM, the GI50 [30] was 0.00868 µM and the TGI [30] was 1.02 µM. For the same molecule, the GI50 [31] was 0.775 µM, the TGI [31] was 2.25 µM and the GI50 [32] was 0.581 µM. For the same molecule, the TGI [32] was 1.15 µM, the GI50 [33] was 0.745 µM and the TGI [33] was 2.63 µM. For the same molecule, the GI50 [34] was 0.821 µM, the TGI [34] was 2.19 µM and the GI50 [35] was 1.27 µM. For the same molecule, the TGI [35] was 9.5 µM, the GI50 [36] was 0.933 µM and the TGI [36] was 2.38 µM. It also gave a GI50 [37] of 5.11 µM, a TGI [37] of 19 µM and a GI50 [38] of 0.861 µM. For the same molecule, the TGI [38] was 2.71 µM, the GI50 [39] was 1.63 µM and the TGI [39] was 11.1 µM. The GI50 [40] was 0.501 µM, the TGI [40] was 1.16 µM and the GI50 [41] was 0.632 µM. For the same molecule, the TGI [41] was 2.28 µM, the GI50 [42] was 0.924 µM and the TGI [42] was 3.56 µM. It also gave a GI50 [43] of 13.5 µM, a TGI [43] of 25.4 µM and a GI50 [44] of 1.86 µM. The TGI [44] was 5.32 µM, the GI50 [45] was 1.89 µM and the TGI [45] was 8.79 µM. For the same molecule, the GI50 [46] was 0.842 µM, the TGI [46] was 3 µM and the GI50 [47] was 0.386 µM. For the same molecule, the TGI [47] was 0.956 µM, the GI50 [48] was 0.578 µM and the TGI [48] was 1.3 µM. The GI50 [49] was 1.78 µM, the TGI [49] was 9.22 µM and the GI50 [50] was 0.225 µM. It also gave a TGI [50] of 0.934 µM, a GI50 [51] of 4.36 µM and a TGI [51] of 33.2 µM. The GI50 [52] was 1.31 µM, the TGI [52] was 5.29 µM and the GI50 [53] was 0.483 µM. It also gave a TGI [53] of 1.05 µM, a GI50 [54] of 0.649 µM and a TGI [54] of 1.97 µM. For the same molecule, the GI50 [55] was 1.69 µM, the TGI [55] was 7.42 µM and the GI50 [56] was 0.88 µM. For the same molecule, the TGI [56] was 3.87 µM, the GI50 [57] was 0.66 µM and the TGI [57] was 1.81 µM. The GI50 [58] was 1.36 µM and the TGI [58] was 8.62 µM.
With CC(C)(CO)CNC(=O)c1ccc2[nH]c(O)c(N=Nc3ccc(S(N)(=O)=O)cc3)c2c1 the GI50 [1] was over 25 µM, the TGI [1] was over 25 µM and the GI50 [2] was over 25 µM. For the same molecule, the TGI [2] was over 25 µM, the GI50 [3] was over 25 µM and the TGI [3] was over 25 µM. The GI50 [4] was over 25 µM, the TGI [4] was over 25 µM and the GI50 [5] was over 25 µM. The TGI [5] was over 25 µM, the GI50 [6] was over 25 µM and the TGI [6] was over 25 µM. The GI50 [7] was over 25 µM, the TGI [7] was over 25 µM and the GI50 [8] was over 25 µM. The TGI [8] was over 25 µM, the GI50 [9] was over 25 µM and the TGI [9] was over 25 µM. The GI50 [10] was over 25 µM, the TGI [10] was over 25 µM and the GI50 [11] was over 25 µM. It also gave a TGI [11] of over 25 µM, a GI50 [12] of over 25 µM and a TGI [12] of over 25 µM. The GI50 [13] was over 25 µM, the TGI [13] was over 25 µM and the GI50 [14] was over 25 µM. It also gave a TGI [14] of over 25 µM, a GI50 [15] of over 25 µM and a TGI [15] of over 25 µM. The GI50 [16] was over 25 µM, the TGI [16] was over 25 µM and the GI50 [17] was over 25 µM. It also gave a TGI [17] of over 25 µM, a GI50 [18] of over 25 µM and a TGI [18] of over 25 µM. It also gave a GI50 [19] of over 25 µM, a TGI [19] of over 25 µM and a GI50 [20] of over 25 µM. It also gave a TGI [20] of over 25 µM, a GI50 [21] of over 25 µM and a TGI [21] of over 25 µM. The GI50 [22] was over 25 µM, the TGI [22] was over 25 µM and the GI50 [23] was over 25 µM. The TGI [23] was over 25 µM, the GI50 [24] was over 25 µM and the TGI [24] was over 25 µM. For the same molecule, the GI50 [25] was over 25 µM, the TGI [25] was over 25 µM and the GI50 [26] was over 25 µM. It also gave a TGI [26] of over 25 µM, a GI50 [27] of over 25 µM and a TGI [27] of over 25 µM. The GI50 [28] was over 25 µM, the TGI [28] was over 25 µM and the GI50 [29] was over 25 µM. For the same molecule, the TGI [29] was over 25 µM, the GI50 [30] was over 25 µM and the TGI [30] was over 25 µM. For the same molecule, the GI50 [31] was over 25 µM, the TGI [31] was over 25 µM and the GI50 [32] was over 25 µM. The TGI [32] was over 25 µM, the GI50 [33] was over 25 µM and the TGI [33] was over 25 µM. It also gave a GI50 [34] of over 25 µM, a TGI [34] of over 25 µM and a GI50 [35] of over 25 µM. For the same molecule, the TGI [35] was over 25 µM, the GI50 [36] was over 25 µM and the TGI [36] was over 25 µM. It also gave a GI50 [37] of over 25 µM, a TGI [37] of over 25 µM and a GI50 [38] of over 25 µM. For the same molecule, the TGI [38] was over 25 µM, the GI50 [39] was over 25 µM and the TGI [39] was over 25 µM. It also gave a GI50 [40] of over 25 µM, a TGI [40] of over 25 µM and a GI50 [41] of over 25 µM. It also gave a TGI [41] of over 25 µM, a GI50 [42] of over 25 µM and a TGI [42] of over 25 µM. The GI50 [43] was over 25 µM, the TGI [43] was over 25 µM and the GI50 [44] was over 25 µM. For the same molecule, the TGI [44] was over 25 µM, the GI50 [45] was over 25 µM and the TGI [45] was over 25 µM. It also gave a GI50 [46] of over 25 µM, a TGI [46] of over 25 µM and a GI50 [47] of over 25 µM. For the same molecule, the TGI [47] was over 25 µM, the GI50 [48] was over 25 µM and the TGI [48] was over 25 µM. The GI50 [49] was over 25 µM, the TGI [49] was over 25 µM and the GI50 [50] was over 25 µM. For the same molecule, the TGI [50] was over 25 µM, the GI50 [51] was over 25 µM and the TGI [51] was over 25 µM. The GI50 [52] was over 25 µM, the TGI [52] was over 25 µM and the GI50 [53] was over 25 µM. For the same molecule, the TGI [53] was over 25 µM, the GI50 [54] was over 25 µM and the TGI [54] was over 25 µM. For the same molecule, the GI50 [55] was over 25 µM, the TGI [55] was over 25 µM and the GI50 [56] was over 25 µM. For the same molecule, the TGI [56] was over 25 µM, the GI50 [57] was over 25 µM and the TGI [57] was over 25 µM. The GI50 [58] was over 25 µM and the TGI [58] was over 25 µM.
